Laboratory results as given in the supplement of paper PMC10307832.

Tests used:
Test in all cases: relative viability (nuclei count vs DMSO), 5 days (fraction); higher = more cells survive
[1] = compound: COc1cc2nc(N3CCCN(C)CC3)nc(NC3CCN(Cc4ccccc4)CC3)c2cc1OC + N=C(N)NC(=N)NCCc1ccccc1 [Phenformin] (partner 250 µM)
Outline: (§1)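 Nuclei were stained with Hoechst during a one-step fixation (final 0.05% Triton X-100, 1% formaldehyde, 1 ug/ml Hoechst) carried out 5 days after dosing, then counted on 4× images. The cells, lung cancer lines in 1536-well plates, had been dosed by pin tool the day after seeding with one drug alone or a fixed anchor-drug dose plus five library-drug doses (not always all listed) in √10 steps. Relative viability is the nuclei count in treated wells divided by that in vehicle wells, and each value is the median of duplicate plates.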

[2] = compound: COc1cc2nc(N3CCCN(C)CC3)nc(NC3CCN(Cc4ccccc4)CC3)c2cc1OC + CC(=O)Nc1cccc(-n2c(=O)n(C3CC3)c(=O)c3c(Nc4ccc(I)cc4F)n(C)c(=O)c(C)c32)c1 [Trametinib] (partner 0.02 µM)
Outline: as §1

[3] = compound: COc1cc2nc(N3CCCN(C)CC3)nc(NC3CCN(Cc4ccccc4)CC3)c2cc1OC + Nc1ncn([C@H]2C[C@H](O)[C@@H](CO)O2)c(=O)n1 [Decitabine] (partner 2 µM)
Outline: as §1

[4] = compound: Cc1cc([C@@H](C)Nc2ccccc2C(=O)O)c2nc(N3CCOCC3)cc(=O)n2c1 [AZD6482] + CC1(C)CCC(c2ccc(Cl)cc2)=C(CN2CCN(c3ccc(C(=O)NS(=O)(=O)c4ccc(N[C@H](CCN5CCOCC5)CSc5ccccc5)c(S(=O)(=O)C(F)(F)F)c4)cc3)CC2)C1 [Navitoclax] (partner 0.5 µM)
Outline: as §1

Cell Line	relative viability ([1]; first compound 0.2 µM)	relative viability ([1]; first compound 0.6325 µM)	relative viability ([1]; first compound 2 µM)	relative viability ([1]; first compound 6.325 µM)	relative viability ([2]; first compound 0.2 µM)	relative viability ([2]; first compound 0.6325 µM)	relative viability ([2]; first compound 2 µM)	relative viability ([2]; first compound 6.325 µM)	relative viability ([3]; first compound 0.2 µM)	relative viability ([3]; first compound 0.6325 µM)	relative viability ([3]; first compound 2 µM)	relative viability ([3]; first compound 6.325 µM)	relative viability ([4]; first compound 0.08 µM)	relative viability ([4]; first compound 0.253 µM)	relative viability ([4]; first compound 0.8 µM)	relative viability ([4]; first compound 2.53 µM)	relative viability ([4]; first compound 8 µM)
NCI-H2342	0.597	0.512	0.649	0.606	0.916	0.963	0.818	0.803	0.791	0.785	0.716	0.662	–	–	–	–	–
HCC-15	0.443	0.485	0.572	0.463	0.44	0.386	0.373	0.379	0.688	0.875	0.649	0.495	0.666	0.616	0.626	0.515	0.523
A-427	0.337	0.422	0.305	0.247	0.756	0.677	0.739	0.674	0.602	0.551	0.589	0.531	0.861	0.903	0.916	0.757	0.947
NCI-H2228	0.271	0.298	0.224	0.141	0.561	0.565	0.403	0.395	–	–	–	–	0.738	0.963	0.803	0.634	0.616
NCI-H1734	0.383	0.383	0.389	0.346	0.657	0.697	0.738	0.552	0.504	0.469	0.516	0.519	0.73	0.604	0.726	0.449	0.776
PC-14	0.584	0.703	0.527	0.265	0.707	0.648	0.806	0.0693	0.193	0.223	0.241	0.0753	0.926	1	1.04	0.879	0.96
NCI-H1915	0.371	0.351	0.374	0.364	0.309	0.295	0.309	0.277	0.263	0.26	0.276	0.264	0.772	0.696	0.83	0.739	0.739
NCI-H1666	0.545	0.574	0.542	0.505	0.821	0.781	0.774	0.799	0.597	0.805	0.658	0.729	0.794	0.846	0.706	0.749	0.528
HCC-366	0.577	0.576	0.613	0.639	0.335	0.401	0.358	0.239	0.334	0.292	0.358	0.309	0.937	1.01	1.11	0.901	0.908
SK-MES-1	0.656	0.626	0.696	0.541	0.597	0.56	0.599	0.471	0.371	0.351	0.316	0.101	1.08	1.17	0.923	0.493	0.572
SW 1573	0.373	0.424	0.369	0.163	0.446	0.518	0.572	0.368	0.542	0.48	0.402	0.182	0.887	0.86	0.941	0.56	0.653
NCI-H661	0.295	0.296	0.27	0.266	0.612	0.563	0.648	0.586	0.58	0.569	0.588	0.689	–	–	–	–	–
PC-3 [JPC-3]	0.484	0.499	0.488	0.521	0.641	0.761	0.745	0.507	0.863	0.805	0.718	0.674	0.727	0.665	0.851	0.756	0.679
NCI-H1623	0.62	0.621	0.522	0.569	–	–	–	–	–	–	–	–	–	–	–	–	–
Calu-6	–	–	–	–	–	–	–	–	–	–	–	–	0.662	0.699	0.754	0.57	0.602
LC-2-ad	0.528	0.568	0.644	0.521	0.934	0.871	0.942	0.941	0.764	0.741	0.734	0.856	0.407	0.312	0.394	0.234	0.259
CAL-12T	0.503	0.606	0.686	0.532	0.324	0.329	0.302	0.266	–	–	–	–	1.13	1.29	1.29	0.648	1.23
RERF-LC-KJ	0.442	0.433	0.397	0.418	0.829	0.862	0.928	0.803	0.743	0.699	0.733	0.679	0.584	0.854	0.802	0.52	0.874
